Test results as given in patent US20100280061A1, “NOVEL ANALGESIC THAT BINDS FILAMIN A” (priority 2009, published 2010).

Legend:
mu opiate receptor (MOR) = biological target: T1, mu opiate receptor (MOR) (Rattus norvegicus, UniProt P33535); assay: [35S]GTPγS binding assay using striatal membranes (MOR agonist activity); type: biochemical; parameters: MOR agonist activity, [35S]GTPγS binding to Gαo, 0.1 μM / MOR agonist activity, [35S]GTPγS binding to Gαo, 1 μM / MOR agonist activity, [35S]GTPγS binding to Gαo, 1 μM + BFNA: reference not given here; settings: for MOR agonist activity, [35S]GTPγS binding to Gαo, 0.1 μM: 0.1 μM compound; for MOR agonist activity, [35S]GTPγS binding to Gαo, 0.1 μM / MOR agonist activity, [35S]GTPγS binding to Gαo, 1 μM: striatal membranes; for MOR agonist activity, [35S]GTPγS binding to Gαo, 1 μM + BFNA: 1 μM compound + 1 μM β-funaltrexamine; for MOR agonist activity, [35S]GTPγS binding to Gαo, 1 μM: 1 μM compound
T1 construct: from tissue; host or cells: striatal tissue (membrane preparation)
Procedure: To assess the mu opiate receptor (MOR) agonist activity of positive compounds from the FLNA screening, compounds were tested in a [^35S]GTPγS binding assay using striatal membranes. Our previous study has shown that in striatal membranes, activation of MOR leads to an increase in [^35S]GTPγS binding to Gαo (Wang et al., 2005 Neuroscience 135:247-261).
Striatal tissue was homogenized in 10 volumes of ice cold 25 mM HEPES buffer, pH 7.4, which contained 1 mM EGTA, 100 mM sucrose, 50 μg/ml leupeptin, 0.04 mM PMSF, 2 μg/ml soybean trypsin inhibitor and 0.2% 2-mercaptoethanol. The homogenates were centrifuged at 800×g for 5 minutes and the supernatants were centrifuged at 49,000×g for 20 minutes. The resulting pellets were suspended in 10 volume of reaction buffer, which contained 25 mM HEPES, pH 7.5, 100 mM NaCl, 50 μg/ml leupeptin, 2 μg/ml soybean trypsin inhibitor, 0.04 mM PMSF and 0.02% […].
The resultant striatal membrane preparation (200 μg) was admixed and maintained (incubated) at 30° C. for 5 minutes in reaction buffer as above that additionally contained 1 mM MgCl2 and 0.5 nM [^35S]GTPγS (0.1 μCi/assay, PerkinElmer Life and Analytical Sciences) in a total volume of 250 μl and continued for 5 minutes in the absence or presence of 0.1-10 μM of an assayed compound of interest. The reaction was terminated by dilution with 750 μl of ice-cold reaction buffer that contained 20 mM MgCl2 and 1 mM EGTA and immediate centrifugation at 16,000×g for 5 minutes.
The resulting pellet was solubilized by sonicating for 10 seconds in 0.5 ml of immunoprecipitation buffer containing 0.5% digitonin, 0.2% sodium cholate and 0.5% NP-40. Normal rabbit serum (1 μl) was added to 1 ml of lysate and incubated at 25° C. for 30 minutes. Nonspecific immune complexes were removed by incubation with 25 μl of protein A/G-conjugated agarose beads at 25° C. for 30 minutes followed by centrifugation at 5,000×g at 4° C. for 5 minutes. The supernatant was divided and separately incubated at 25° C. for 30 minutes with antibodies raised against Gαo proteins (1:1,000 dilutions).
The immunocomplexes so formed were collected by incubation at 25° C. for 30 minutes with 40 μl of agarose-conjugated protein A/G beads and centrifugation at 5,000×g at 4° C. for 5 minutes. The pellet was washed and suspended in buffer containing 50 mM Tris-HCl, pH 8.0, and 1% NP-40. The radioactivity in the suspension was determined by liquid scintillation spectrometry. […] DAMGO (H-Tyr-D-Ala-Gly-N-MePhe-Gly-OH; 1 or 10 μM) was used as a positive control.

[1] = biological target: Bn-VAKGL pentapeptide of filamin A (FLNA) (Homo sapiens, UniProt P21333); assay: FITC-NLX-based FLNA screening assay (FLNA peptide binding assay); settings: 10 nM FITC-NLX; for Percent inhibition of FITC-NLX binding, 0.01 μM: 0.01 μM compound; for Percent inhibition of FITC-NLX binding, 0.1 μM: 0.1 μM compound; for Percent inhibition of FITC-NLX binding, 1 μM: 1 μM compound
Procedure: The final assay volume is 100 μl.
Compounds are tested in triplicate or quadruplicate.

T1 sequence (P33535 whole entry): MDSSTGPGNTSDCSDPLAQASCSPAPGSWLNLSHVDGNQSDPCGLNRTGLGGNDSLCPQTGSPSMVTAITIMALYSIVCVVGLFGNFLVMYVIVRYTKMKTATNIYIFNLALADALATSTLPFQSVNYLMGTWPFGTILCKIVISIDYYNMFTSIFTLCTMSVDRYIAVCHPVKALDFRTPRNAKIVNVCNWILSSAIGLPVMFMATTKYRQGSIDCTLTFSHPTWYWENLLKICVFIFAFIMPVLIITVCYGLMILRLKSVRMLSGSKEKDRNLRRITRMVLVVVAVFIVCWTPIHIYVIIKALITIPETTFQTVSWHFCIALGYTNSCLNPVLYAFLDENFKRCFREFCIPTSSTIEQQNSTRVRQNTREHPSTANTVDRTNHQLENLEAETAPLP

For COc1ccccc1C(=O)CC1c2c(cc3c(c2OC)OCO3)CC[N+]1(C)C (stereo not drawn) [B0025], the “MOR agonist activity, [35S]GTPγS binding to Gαo, 0.1 μM” value (“MOR agonist activity … 0.1 μM” below) (mu opiate receptor (MOR)) was 159.6%, the “MOR agonist activity, [35S]GTPγS binding to Gαo, 1 μM + BFNA” value (“MOR agonist activity … 1 μM + BFNA” below) (mu opiate receptor (MOR)) was 137.7% and the “MOR agonist activity, [35S]GTPγS binding to Gαo, 1 μM” value (mu opiate receptor (MOR)) was 234.6%. For the same compound, the “Percent inhibition of FITC-NLX binding, 0.01 μM” value (“Percent inhibition … 0.01 μM” for short) [1] was 41.7%, the “Percent inhibition of FITC-NLX binding, 0.1 μM” value (shortened to “Percent inhibition … 0.1 μM”) [1] was 49.4% and the “Percent inhibition of FITC-NLX binding, 1 μM” value [1] was 56.6%.

For COc1ccc(C(=O)CC2c3c(cc4c(c3OC)OCO4)CC[N+]2(C)C)cc1OC.[I-] (stereo not drawn) [B0026], the “MOR agonist activity … 0.1 μM” value (mu opiate receptor (MOR)) was 152.0%, the “MOR agonist activity … 1 μM + BFNA” value (mu opiate receptor (MOR)) was 28.8% and the “MOR agonist activity, [35S]GTPγS binding to Gαo, 1 μM” value (mu opiate receptor (MOR)) was 233.3%. For the same compound, the “Percent inhibition … 0.01 μM” value [1] was 41.1%, the “Percent inhibition … 0.1 μM” value [1] was 43.3% and the “Percent inhibition of FITC-NLX binding, 1 μM” value [1] was 48.2%.

For COc1ccc(C(=O)CC2c3c(cc4c(c3OC)OCO4)CC[N+]2(C)C)c(F)c1.[I-] (stereo not drawn) [B0027], the “MOR agonist activity … 0.1 μM” value (mu opiate receptor (MOR)) was 140.9%, the “MOR agonist activity … 1 μM + BFNA” value (mu opiate receptor (MOR)) was 21.6% and the “MOR agonist activity, [35S]GTPγS binding to Gαo, 1 μM” value (mu opiate receptor (MOR)) was 266.9%. The “Percent inhibition … 0.01 μM” value [1] was 40.2%, the “Percent inhibition … 0.1 μM” value [1] was 46.7% and the “Percent inhibition of FITC-NLX binding, 1 μM” value [1] was 49.8%.

For COc1c2c(cc3c1C(CC(=O)CCc1ccc(O)cc1)[N+](C)(C)CC3)OCO2.[I-] (stereo not drawn) [B0028], the “MOR agonist activity … 0.1 μM” value (mu opiate receptor (MOR)) was 199.1%, the “MOR agonist activity … 1 μM + BFNA” value (mu opiate receptor (MOR)) was 55.0% and the “MOR agonist activity, [35S]GTPγS binding to Gαo, 1 μM” value (mu opiate receptor (MOR)) was 357.7%. The “Percent inhibition … 0.01 μM” value [1] was 38.2%, the “Percent inhibition … 0.1 μM” value [1] was 42.8% and the “Percent inhibition of FITC-NLX binding, 1 μM” value [1] was 49.1%.

COc1ccc(CC(=O)CC2c3c(cc4c(c3OC)OCO4)CC[N+]2(C)C)c(OC)c1 (stereo not drawn) [B0029] was tested, and the “MOR agonist activity … 0.1 μM” value (mu opiate receptor (MOR)) was 171.9%, the “MOR agonist activity … 1 μM + BFNA” value (mu opiate receptor (MOR)) was 17.6% and the “MOR agonist activity, [35S]GTPγS binding to Gαo, 1 μM” value (mu opiate receptor (MOR)) was 210.3%. The “Percent inhibition … 0.01 μM” value [1] was 33.4%, the “Percent inhibition … 0.1 μM” value [1] was 42.9% and the “Percent inhibition of FITC-NLX binding, 1 μM” value [1] was 50.2%.

With COc1ccccc1CC(O)CC1c2c(cc3c(c2OC)OCO3)CCN1C (stereo not drawn) [B0030] the “MOR agonist activity … 0.1 μM” value (mu opiate receptor (MOR)) was 107.2%, the “MOR agonist activity … 1 μM + BFNA” value (mu opiate receptor (MOR)) was 90.1% and the “MOR agonist activity, [35S]GTPγS binding to Gαo, 1 μM” value (mu opiate receptor (MOR)) was 276.1%. For the same compound, the “Percent inhibition … 0.01 μM” value [1] was 47.0%, the “Percent inhibition … 0.1 μM” value [1] was 50.5% and the “Percent inhibition of FITC-NLX binding, 1 μM” value [1] was 57.6%.

In the case of COc1c2c(cc3c1C(CC(=O)Cc1ccccc1C)[N+](C)(C)CC3)OCO2 (stereo not drawn) [B0031], the “MOR agonist activity … 0.1 μM” value (mu opiate receptor (MOR)) was 210.8%, the “MOR agonist activity … 1 μM + BFNA” value (mu opiate receptor (MOR)) was 28.8% and the “MOR agonist activity, [35S]GTPγS binding to Gαo, 1 μM” value (mu opiate receptor (MOR)) was 272.0%. The “Percent inhibition … 0.01 μM” value [1] was 36.2%, the “Percent inhibition … 0.1 μM” value [1] was 44.2% and the “Percent inhibition of FITC-NLX binding, 1 μM” value [1] was 50.5%.

In the case of COc1ccccc1CC(O)CC1c2c(cc3c(c2OC)OCO3)CC[N+]1(C)C.[I-] (stereo not drawn) [B0032], the “MOR agonist activity … 0.1 μM” value (mu opiate receptor (MOR)) was 221.1%, the “MOR agonist activity … 1 μM + BFNA” value (mu opiate receptor (MOR)) was 15.6% and the “MOR agonist activity, [35S]GTPγS binding to Gαo, 1 μM” value (mu opiate receptor (MOR)) was 297.7%. The “Percent inhibition … 0.01 μM” value [1] was 45.1%, the “Percent inhibition … 0.1 μM” value [1] was 51.3% and the “Percent inhibition of FITC-NLX binding, 1 μM” value [1] was 48.9%.

For COc1ccc(C(=O)CC2c3c(cc4c(c3OC)OCO4)CC[N+]2(C)C)c(O)c1.[I-] (stereo not drawn) [B0033], the “MOR agonist activity … 0.1 μM” value (mu opiate receptor (MOR)) was 149.3%, the “MOR agonist activity … 1 μM + BFNA” value (mu opiate receptor (MOR)) was 41.9% and the “MOR agonist activity, [35S]GTPγS binding to Gαo, 1 μM” value (mu opiate receptor (MOR)) was 188.9%. For the same compound, the “Percent inhibition … 0.01 μM” value [1] was 42.1%, the “Percent inhibition … 0.1 μM” value [1] was 46.8% and the “Percent inhibition of FITC-NLX binding, 1 μM” value [1] was 49.4%.

For COc1cccc(CCC(=O)CC2c3c(cc4c(c3OC)OCO4)CC[N+]2(C)C)c1 (stereo not drawn) [B0034], the “MOR agonist activity … 0.1 μM” value (mu opiate receptor (MOR)) was 122.5%, the “MOR agonist activity … 1 μM + BFNA” value (mu opiate receptor (MOR)) was 41.8% and the “MOR agonist activity, [35S]GTPγS binding to Gαo, 1 μM” value (mu opiate receptor (MOR)) was 235.2%. For the same compound, the “Percent inhibition … 0.01 μM” value [1] was 49.1%, the “Percent inhibition … 0.1 μM” value [1] was 54.2% and the “Percent inhibition of FITC-NLX binding, 1 μM” value [1] was 59.1%.
